# In US20260183399A1, “METHOD FOR MODULATING KINASE ACTIVITY AND USE THEREOF” (CENTER FOR EXCELLENCE IN MOLECULAR CELL SCIENCE, CHINESE …, priority 2022, published 2026):
# What was measured:
# LKB1 kinase = target: T1, LKB1 kinase (Homo sapiens, UniProt Q15831); assay: In vitro kinase experiment with LKB1 kinase (excluding STRAD1 and MO25) and His-AMPK α1; assay type: biochemical; conditions: metabolite 100 μM; FIG. 1J
# T1 construct: the general method says FLAG-LKB1 instead) (N); made in house; host or cells: HEK293T (293T) cells, transfected; immunoprecipitation
# T1 sequence (Q15831 1-433): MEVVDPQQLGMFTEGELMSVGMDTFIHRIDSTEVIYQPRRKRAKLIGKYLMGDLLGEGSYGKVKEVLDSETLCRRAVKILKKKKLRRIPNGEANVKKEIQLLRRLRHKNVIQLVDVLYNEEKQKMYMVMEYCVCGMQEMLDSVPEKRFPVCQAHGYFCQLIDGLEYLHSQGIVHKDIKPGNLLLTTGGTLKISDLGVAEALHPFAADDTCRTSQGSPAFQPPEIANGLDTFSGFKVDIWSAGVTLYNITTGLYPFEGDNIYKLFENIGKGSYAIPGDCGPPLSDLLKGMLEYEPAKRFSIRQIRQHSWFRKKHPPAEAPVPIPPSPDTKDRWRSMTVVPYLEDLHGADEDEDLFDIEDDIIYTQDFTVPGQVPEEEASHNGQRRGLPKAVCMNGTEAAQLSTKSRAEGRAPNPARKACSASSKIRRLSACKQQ
# Procedure: (§1) The final reaction system for kinase experiment was: 50 mM Tris HCl, 10 mM MgCl2, 1 mM DTT, and 100 μM ATP. HEK293T cells were co-transfected with equal amounts of GST-LKB1, FLAG-STRAD, MYC-MO25 plasmids or solely transfected with FLAG-LKB1 plasmid. The cells were collected, processed for immunoprecipitation using GST beads or FLAG beads, washed three times with cell lysis buffer containing NP-40, and washed twice with kinase reaction buffer. The His-AMPK protein was induced and purified using E. coli BL21 competent cells. The kinase was incubated with metabolites at 100 μM at room temperature for 15 minutes before reaction, then added with reaction buffer and His-AMPK protein, and reacted at […] for 30 minutes. The phosphorylation of AMPK protein was detected by Western blot.
# The final reaction system for the kinase experiment was 50 mM Tris-HCl, 10 mM MgCl2, 1 mM DTT, and 100 μM ATP. […] The kinase complex was pre-incubated with metabolites at room temperature for 15 minutes before reaction. Then the reaction buffer and His-AMPK protein were added, and reacted at 37° C. for 30 minutes. The phosphorylation of AMPK protein was detected by Western blot.
# [1] = test system: AMPK α-catalytic subunit phosphorylation in 293T cells; assay: Metabolite treatment of glucose-starved 293T cells, Western blot of AMPK phosphorylation; assay type: cell-based; conditions: glucose starvation 2 hours
# Procedure: Cells were subjected to glucose starvation treatment using glucose free culture medium for 2 hours. The corresponding metabolites were added to the culture medium according to the instructions shown in FIG. 1C and FIG. 1D, so that their concentration in the culture medium reached the labeled level, if there was no labeling, the concentration of metabolites in the culture medium was […]. After treatment, cells were collected to prepare lysis buffer, and the changes in specific proteins and phosphorylation of specific sites were detected by Western blot.
# When the expression and function of these metabolic enzymes are inhibited, their corresponding products are decreased. Therefore, we speculate that there may be a mechanism by which AMPK is regulated by metabolite molecules in the glycolytic metabolic pathway, and the activation level of AMPK is related to metabolite content. To verify this hypothesis, we added different doses of exogenous 3-phosphoglycerate (3-PG) to 293T cells subjected to glucose starvation treatment (activation of AMPK signaling pathway). […] After treatment, cells were collected to prepare lysate, and the changes in specific proteins and the changes in phosphorylation sites of AMPK α-catalytic subunit were detected by Western blot.
# [2] = target: T2, LKB1-STRAD1-MO25 kinase complex (Homo sapiens, UniProt Q15831); assay: In vitro kinase experiment with LKB1 kinase complex and His-AMPK α1; assay type: biochemical
# T2 construct: GST (N); made in house; host or cells: HEK293T (293T) cells, co-transfected
# T2 sequence (Q15831 1-433): T1 sequence (Q15831 1-433)
# T2 sequence (Q7RTN6 1-431 partner): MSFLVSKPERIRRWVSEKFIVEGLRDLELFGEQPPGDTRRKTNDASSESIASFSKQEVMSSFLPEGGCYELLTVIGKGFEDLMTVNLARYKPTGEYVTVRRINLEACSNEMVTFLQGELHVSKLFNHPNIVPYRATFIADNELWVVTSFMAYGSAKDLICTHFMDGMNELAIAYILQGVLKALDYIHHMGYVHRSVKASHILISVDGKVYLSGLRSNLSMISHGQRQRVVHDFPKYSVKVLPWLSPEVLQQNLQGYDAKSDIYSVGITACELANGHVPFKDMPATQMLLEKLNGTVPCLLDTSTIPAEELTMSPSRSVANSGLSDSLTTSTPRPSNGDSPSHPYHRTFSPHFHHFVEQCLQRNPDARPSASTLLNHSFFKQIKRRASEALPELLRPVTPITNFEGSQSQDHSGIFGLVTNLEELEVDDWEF
# T2 sequence (Q9Y376 1-341 partner): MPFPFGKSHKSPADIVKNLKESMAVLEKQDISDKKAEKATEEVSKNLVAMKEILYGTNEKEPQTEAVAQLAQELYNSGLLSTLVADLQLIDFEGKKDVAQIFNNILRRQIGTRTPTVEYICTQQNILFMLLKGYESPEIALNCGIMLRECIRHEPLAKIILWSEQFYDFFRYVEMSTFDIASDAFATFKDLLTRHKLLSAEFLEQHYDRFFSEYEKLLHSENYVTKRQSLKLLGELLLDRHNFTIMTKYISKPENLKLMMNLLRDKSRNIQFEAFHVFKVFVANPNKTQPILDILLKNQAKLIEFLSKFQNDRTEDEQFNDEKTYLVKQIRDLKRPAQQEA
# Procedure: as §1
# Given that LKB1 is a key upstream kinase that phosphorylates and activates the AMPK a subunit, we speculate that the aforementioned metabolites may affect the phosphorylation activation of AMPK a subunit by LKB1 kinase or LKB1 kinase complex. To verify this hypothesis, GST-LKB1, FLAG-STRAD1, and MYC-MO25 were co-transfected into 293T cells (2 μg of each expression plasmid, and transfected into about 7×10^6 cells). After 48 hours, cells were collected and lysed, and then the LKB1-STRAD1-MO25 kinase complex was subjected to glutathione-agarose bead affinity purification, and co-incubated with the recombinant His-AMPK α1 subunit expressed in E. coli for in vitro kinase experiments. The final reaction system for kinase experiment was: 50 mM Tris HCl, 10 mM MgCl2, 1 mM DTT, 100 μM ATP. At the same time, metabolites such as 3-phosphoglyceraldehyde (GAP) or 3-phosphoglycerate (3-PG) were added to 100 μM according to the diagram (as shown in FIG. 1H), or to a concentration of 50-400 μM as shown in the diagram (as shown in FIG. 1I). The kinase complex was pre-incubated with metabolites at room temperature for 15 minutes before reaction. Then the reaction buffer and His-AMPK protein were added, and reacted at 37° C. for 30 minutes. The phosphorylation of AMPK protein was detected by Western blot.
# [3] = target: T3, recombinant human PGK1 protein (Homo sapiens, UniProt P00558); assay: In vitro enzyme activity of PGK1 (ATP detection kit, IC50 inhibition curve); assay type: biochemical; conditions: S33 0, 1, 3, 5, 7, 10, 30 μM; 37° C. for 25 minutes; FIG. 1F
# T3 construct: made in house; host or cells: Escherichia coli
# T3 sequence (P00558 1-417): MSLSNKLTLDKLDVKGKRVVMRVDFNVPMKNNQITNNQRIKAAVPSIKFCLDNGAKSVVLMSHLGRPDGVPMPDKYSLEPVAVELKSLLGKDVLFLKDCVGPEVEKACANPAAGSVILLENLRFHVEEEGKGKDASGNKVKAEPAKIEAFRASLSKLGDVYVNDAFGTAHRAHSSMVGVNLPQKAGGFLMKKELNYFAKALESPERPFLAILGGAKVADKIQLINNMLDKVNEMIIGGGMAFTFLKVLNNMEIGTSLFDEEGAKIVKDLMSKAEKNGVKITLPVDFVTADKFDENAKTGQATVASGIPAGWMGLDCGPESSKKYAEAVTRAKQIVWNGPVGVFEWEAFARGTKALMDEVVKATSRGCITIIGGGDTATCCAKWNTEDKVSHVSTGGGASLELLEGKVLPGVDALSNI
# Procedure: A substrate buffer mixture with a final concentration of 10 mM KH2PO4, pH7.0, 2 mM GAP, 0.6 mM β-NAD, 0.4 mM ADP, 10 mM MgSO4, 200 mM Glycine, and 0.01 μg/μL GAPDH was prepared. The purified hPGK1 recombinant protein was diluted to 0.2 ng/μL. Inhibitors were added to the protein and a concentration gradient was set up. Each reaction was added with 100 μl of substrate and a mixture of 100 μl hPGK1 protein and inhibitor, and reacted at 37° C. for 25 minutes. After centrifuged at 10000 rpm for 10 minutes at 4° C., 100 μl of supernatant was taken. In the ATP detection kit (Beyotime S0026), the ATP detection solution was diluted with ATP detection diluent at a ratio of 1:10. In a 96 well blank plate, each well was added with 100 μl of diluted detection solution, and let it stand at room temperature for 5 minutes, added with 100 μl of supernatant from enzyme activity reaction, and reacted for 5 seconds, and a microplate reader was used to read the fluorescence value. The relative enzyme activity was calculated based on fluorescence values and IC50 values were calculated using GraphPad nonlinear regression fitting.
# The compound (S33, patent number: ZL201610826187. X) reported in the previous patent is a PGK1 inhibitor (FIG. 1E), and we determined the inhibitory activity of compound S33 on PGK1. […]
# [4] = test system: AMPK pathway (AMPK α-catalytic subunit and ACC1 phosphorylation) in HeLa and 293T cells; assay: S33 treatment of HeLa and 293T cells, Western blot of AMPK pathway; assay type: cell-based; conditions: 2, 5 and 10 μM, 2 hours, dose-dependent, FIG. 1G
# Procedure: In order to investigate the regulatory effect of PGK1 inhibition on AMPK pathway, different concentrations of S33 (2, 5, and 10 μM, respectively) were added to the culture supernatants of HeLa and 293T cells, and treated for 2 hours. Cell lysate was collected and the changes in specific proteins and in AMPK α-catalytic subunit phosphorylation sites, as well as the phosphorylation of the classical substrate ACC1, downstream of the AMPK pathway, were detected by western blot.
SMILES,phosphorylation of AMPK α1 by LKB1 kinase (LKB1 kinase),"phosphorylation of AMPK α1 by LKB1 kinase complex ([2]; metabolite 100 μM, FIG. 1H)",further results
"O=C(COP(=O)(O)O)[C@@H](O)[C@H](O)[C@H](O)COP(=O)(O)O [1,6-fructose diphosphate]",had no such effect,–,–
O=C(O)[C@@H](CO)OP(=O)(O)O [2-phosphoglycerate],significantly inhibit,–,"AMPK α-catalytic subunit phosphorylation signaling ([1]; metabolite 200 μM, FIG. 1D): inhibitory effects"
O=CC(O)COP(=O)(O)O (stereo not drawn) [3-phosphoglyceraldehyde],had no such effect,had no such effect,–
O=C(O)[C@H](O)COP(=O)(O)O [3-phosphoglycerate],significantly inhibit,strongly inhibited,"intracellular AMPK α-catalytic subunit phosphorylation signaling ([1]; metabolite 100-800 μM, FIG. 1C): significantly inhibited intracellular AMPK α-catalytic subunit phosphorylation signaling in a dose-dependent manner; phosphorylation of AMPK α1 by LKB1 kinase complex ([2]; metabolite 50-400 μM, FIG. 1I): inhibits the phosphorylation of AMPK α1 by LKB1 kinase complex in a dose-dependent manner"
COc1cc2nc(N3CCC(N(C)C(=O)C4CCCO4)CC3)nc(N3CCOCC3)c2cc1Cl (stereo not drawn) [S33],–,–,inhibitory activity of compound on PGK1 [3]: effective inhibitor of PGK1; ACC1 phosphorylation [4]: upregulate; AMPK α-catalytic subunit phosphorylation [4]: upregulate
